# Calls of active or inactive are those of the source. No rule for the calls is given here.
# System: CCRIS mutagenicity, Ames/micronucleus/aberration tests
# Experiment: CCRIS mutagenicity studies
# [1] = Test System: AMES SALMONELLA TYPHIMURIUM, Strain/Indicator: TA98, Metabolic Activation: NONE, Method: PREINCUBATION
# [2] = Test System: AMES SALMONELLA TYPHIMURIUM, Strain/Indicator: TA98, Metabolic Activation: NONE, Method: STANDARD PLATE
# [3] = Test System: AMES SALMONELLA TYPHIMURIUM, Strain/Indicator: TA98, Metabolic Activation: RAT, LIVER, S-9, AROCLOR 1254, Method: STANDARD PLATE
# [4] = Test System: AMES SALMONELLA TYPHIMURIUM, Strain/Indicator: TA98, Metabolic Activation: RAT, LIVER, S-9, PCB, Method: PREINCUBATION
# [5] = Test System: AMES SALMONELLA TYPHIMURIUM, Strain/Indicator: TA100, Metabolic Activation: NONE, Method: PREINCUBATION
# [6] = Test System: AMES SALMONELLA TYPHIMURIUM, Strain/Indicator: TA100, Metabolic Activation: RAT, LIVER, S-9, AROCLOR 1254, Method: STANDARD PLATE
# [7] = Test System: AMES SALMONELLA TYPHIMURIUM, Strain/Indicator: TA100, Metabolic Activation: RAT, LIVER, S-9, PCB, Method: PREINCUBATION
compound,measurement,setting,value
NCCN1CCNCC1,mutagenic call,[1],inactive; negative
same,mutagenic call,[2],inactive; negative
same,mutagenic call,[3],inactive; negative
same,mutagenic call,[4],inactive; negative
same,mutagenic call,[5],inactive; negative
same,mutagenic call,"Test System: AMES SALMONELLA TYPHIMURIUM, Strain/Indicator: TA100, Metabolic Activation: NONE, Method: STANDARD PLATE",inactive; negative
same,mutagenic call,[6],inactive; negative
same,mutagenic call,[7],inactive; negative
same,mutagenic call,"Test System: AMES SALMONELLA TYPHIMURIUM, Strain/Indicator: TA1535, Metabolic Activation: NONE, Method: STANDARD PLATE",inactive; negative
same,mutagenic call,"Test System: AMES SALMONELLA TYPHIMURIUM, Strain/Indicator: TA1535, Metabolic Activation: RAT, LIVER, S-9, AROCLOR 1254, Method: STANDARD PLATE",inactive; negative
same,mutagenic call,"Test System: AMES SALMONELLA TYPHIMURIUM, Strain/Indicator: TA1537, Metabolic Activation: NONE, Method: STANDARD PLATE",inactive; negative
same,mutagenic call,"Test System: AMES SALMONELLA TYPHIMURIUM, Strain/Indicator: TA1537, Metabolic Activation: RAT, LIVER, S-9, AROCLOR 1254, Method: STANDARD PLATE",inactive; negative
same,mutagenic call,"Test System: AMES SALMONELLA TYPHIMURIUM, Strain/Indicator: TA1538, Metabolic Activation: NONE, Method: STANDARD PLATE",inactive; negative
same,mutagenic call,"Test System: AMES SALMONELLA TYPHIMURIUM, Strain/Indicator: TA1538, Metabolic Activation: RAT, LIVER, S-9, AROCLOR 1254, Method: STANDARD PLATE",inactive; negative
same,mutagenic call,"Test System: UDS RAT HEPATOCYTES, Strain/Indicator: THY INCORP, Metabolic Activation: NONE, Method: SCINTILLATION SPECTROMETRY",inactive; negative
O=[N+]([O-])c1ccc2c3c(cccc13)-c1cc3ccccc3cc1-2,mutagenic call,[2],active; positive
ClCc1cccnc1,mutagenic call,[2],inactive; negative
same,mutagenic call,[3],inactive; negative
same,mutagenic call,[6],active; positive
same,mutagenic call,"Test System: AMES SALMONELLA TYPHIMURIUM, Strain/Indicator: TA102, Metabolic Activation: NONE, Method: STANDARD PLATE",inactive; negative
same,mutagenic call,"Test System: AMES SALMONELLA TYPHIMURIUM, Strain/Indicator: TA102, Metabolic Activation: RAT, LIVER, S-9, AROCLOR 1254, Method: STANDARD PLATE",inactive; negative
same,mutagenic call,"Test System: E. COLI, Strain/Indicator: WP2 UVRA, Metabolic Activation: MOUSE, LIVER, S-9, AROCLOR 1254, Method: STANDARD PLATE",inactive; negative
same,mutagenic call,"Test System: E. COLI, Strain/Indicator: WP2 UVRA, Metabolic Activation: NONE, Method: STANDARD PLATE",inactive; negative
same,mutagenic call,"Test System: E. COLI, Strain/Indicator: WP2 UVRA, Metabolic Activation: RAT, LIVER, S-9, AROCLOR 1254, Method: STANDARD PLATE",inactive; negative
same,mutagenic call,"Test System: E. COLI, Strain/Indicator: WP2 UVRA, Metabolic Activation: RAT, LIVER, S-9, Method: STANDARD PLATE",inactive; negative
same,mutagenic call,"Test System: MOUSE LYMPHOMA, Strain/Indicator: L5178Y (TK+/TK-), Metabolic Activation: NONE, Method: SUSPENSION/PLATE",active; positive
same,mutagenic call,"Test System: MOUSE LYMPHOMA, Strain/Indicator: L5178Y (TK+/TK-), Metabolic Activation: RAT, LIVER, S-9, AROCLOR 1254, Method: SUSPENSION/PLATE",active; positive
BrCC1CO1 (configuration not stated),mutagenic call,"Test System: AMES SALMONELLA TYPHIMURIUM, Strain/Indicator: TA100, Metabolic Activation: HAMSTER, LIVER, S-9, AROCLOR 1254 (10%), Method: PREINCUBATION",active; positive
same,mutagenic call,[5],active; positive
same,mutagenic call,"Test System: AMES SALMONELLA TYPHIMURIUM, Strain/Indicator: TA100, Metabolic Activation: RAT, LIVER, S-9, AROCLOR 1254 (10%), Method: PREINCUBATION",active; positive
same,mutagenic call,"Test System: AMES SALMONELLA TYPHIMURIUM, Strain/Indicator: TA1535, Metabolic Activation: HAMSTER, LIVER, S-9, AROCLOR 1254 (10%), Method: PREINCUBATION",active; positive
same,mutagenic call,"Test System: AMES SALMONELLA TYPHIMURIUM, Strain/Indicator: TA1535, Metabolic Activation: NONE, Method: PREINCUBATION",active; positive
same,mutagenic call,"Test System: AMES SALMONELLA TYPHIMURIUM, Strain/Indicator: TA1535, Metabolic Activation: RAT, LIVER, S-9, AROCLOR 1254 (10%), Method: PREINCUBATION",active; positive
Cc1nc2ccc(N(C)C)c(C)c2nc1C,mutagenic call,[1],inactive; negative
same,mutagenic call,[4],active; positive
same,mutagenic call,[5],inactive; negative
same,mutagenic call,[7],active; positive

# — PubChem BioAssay AID1259407 (Chemical Carcinogenesis Research Information System (CCRIS), 2018)
